From patent US20090247624A1, “FORMULATIONS OF RADIOPROTECTIVE ALPHA BETA UNSATURATED ARYL SULFONES” (Onconova Therapeutics Inc., priority 2006, published 2009)

Assays:
[1] = Stability of solid drug after autoclaving (HPLC); format: physicochemical; conditions: autoclaved in a crimped vial
Method: A solid drug sample (ON1210), after autoclaving in a crimped vial, is also evaluated for any degradation using the developed HPLC method. The sample, after autoclaving, is used to make a standard solution of 400 μg/mL and injected onto HPLC.

[2] = Saturated solubility of ON.1210.Na in different solvent systems; format: physicochemical; conditions: for solubility at 24 h: 24 hours of equilibration; for solubility at 48 h: 48 hours of equilibration
[3] = pH-solubility study (equilibrium solubility, pKa); format: physicochemical; conditions: for solubility thermodynamic: aqueous solution (buffer not named), thermodynamic from solid
Method: (§1) A stability indicating HPLC assay is used during the preformulation studies. Preformulation studies include determination of microscopic and macroscopic properties, partition coefficient, pKa, pH-solubility, pH-stability, solid-state characterization and solid-state stability. XRD and thermal analyses re used to characterize the solid and solid-state stability. The solid-state stability as well as the pH stability of the drug is carried out at 75° C.

[4] = pH-stability study under accelerated conditions; format: physicochemical
Method: as §1

[5] = Octanol:water partition coefficient; format: physicochemical
Method: as §1

[6] = General physical properties: solubility in water; format: physicochemical
From the text: 1210.Na. The example compound is a sodium salt of (E)-4-Carboxystyryl-4-chlorobenzylsulfone.

[7] = Solid-state stability of ON.1210.Na at 75° C.; format: physicochemical
Method: as §1
The stability of ON.1210.Na in the solid state is determined by exposing the drug at 75° C. over a prolonged time. The sample is crimped in a 10 mL injection vial and kept at the above temperature. The sample is collected after 15 days and one month and reconstituted with diluting solution and its concentration is determined by HPLC. Appearance of any additional peak in the chromatogram is also noted. A control sample is represented by ON.1210.Na not exposed to 75° C. and reconstituted to a known concentration with diluting solution.

[8] = Half life by route of administration and as suspension; format: in vivo
Method: When, ON.1210.Na, for example, is administered as a suspension described herein the half life of the drug is on the order of 30-40 hours depending on the specific formulation and its viscosity. This dramatic increase in half-life translates to prolonged exposure to drug over a period of 72 hours and beyond. This increase is possible because of an apparent low dissolution rate of drug from the site of administration.

## O=C([O-])c1ccc(/C=C/S(=O)(=O)Cc2ccc(Cl)cc2)cc1.[Na+] [ON.1210.Na, (E)-4-Carboxystyryl-4-chlorobenzylsulfone, Sodium Salt]
[1]
  stability of bulk solid drug: stable under the autoclaving conditions
[2]; 0.25% Tween 80 in phosphate buffer, pH 8.45, aqueous with cosolvent or surfactant or cyclodextrin
  solubility: 9.5 mg/mL
[2]; 0.25% tween 80 in water, pH 8.87, aqueous with cosolvent or surfactant or cyclodextrin
  solubility: 10.5 mg/mL
[2]; 0.5% Tween 80 in phosphate buffer, pH 8.41, aqueous with cosolvent or surfactant or cyclodextrin
  solubility: 9.8 mg/mL
[2]; 0.5% tween 80 in water, pH 8.74, aqueous with cosolvent or surfactant or cyclodextrin
  solubility: 10.3 mg/mL
[2]; 1% (w/v) Povidone K 90 in water, pH 8.69, aqueous with cosolvent or surfactant or cyclodextrin
  solubility: 209 mg/mL
[2]; 1% PVP C 15, pH 8.86, aqueous with cosolvent or surfactant or cyclodextrin, thermodynamic from solid
  solubility: 26.9 mg/mL
[2]; 1% PVP C 30, pH 8.02, aqueous with cosolvent or surfactant or cyclodextrin, thermodynamic from solid
  solubility: 25.1 mg/mL
[2]; 1% Tween 80 in phosphate buffer, pH 8.45, aqueous with cosolvent or surfactant or cyclodextrin
  solubility: 8.9 mg/mL
[2]; 1% tween 80 in water, pH 8.82, aqueous with cosolvent or surfactant or cyclodextrin
  solubility: 10.1 mg/mL
[2]; 2% PVP C 15, pH 8.69, aqueous with cosolvent or surfactant or cyclodextrin, thermodynamic from solid
  solubility: 26.9 mg/mL
[2]; 2% Tween 80 in phosphate buffer, pH 8.39, aqueous with cosolvent or surfactant or cyclodextrin
  solubility: 9.7 mg/mL
[2]; 2% tween 80 in water, pH 8.78, aqueous with cosolvent or surfactant or cyclodextrin
  solubility: 9 mg/mL
[2]; 5% (w/v) Povidone K 90 in Water, pH 8.35, aqueous with cosolvent or surfactant or cyclodextrin
  solubility: 152 mg/mL
[2]; 10% PEG400:water, pH 8.24, aqueous with cosolvent or surfactant or cyclodextrin, thermodynamic from solid
  solubility: 36 mg/mL
[2]; 20% HPCD:20% PEG 400:60% water, pH 8.2, aqueous with cosolvent or surfactant or cyclodextrin
  solubility: 53.6 mg/mL
[2]; 25% PEG400:water, pH 8.01, aqueous with cosolvent or surfactant or cyclodextrin, thermodynamic from solid
  solubility: 39 mg/mL
[2]; 40% HPCD, pH 7.86, aqueous with cosolvent or surfactant or cyclodextrin
  solubility: 109 mg/mL
[2]; 50% PEG400:Buffer (0.01M), pH 8.2, aqueous with cosolvent or surfactant or cyclodextrin
  solubility: 20.8 mg/mL
[2]; 50% PEG400:Buffer (0.07M), pH 8.2, aqueous with cosolvent or surfactant or cyclodextrin
  solubility: 23.4 mg/mL
[2]; 50% PEG400:water, pH 7.53, aqueous with cosolvent or surfactant or cyclodextrin
  solubility: 40 mg/mL
[2]; 50:50 PEG400:ethanol, pH 8.46, organic solvent or mixture
  solubility: 37 mg/mL
[2]; 100% ethanol, pH 7.94, organic solvent or mixture
  solubility: 0.9 mg/mL
[2]; DMA:WATER:Ethanol (1:1:1), aqueous with cosolvent or surfactant or cyclodextrin
  solubility: 46.4 mg/mL
[2]; NN-Dimethyl Acetamide:Water:PEG 400 (1:2:2), pH 7.9, aqueous with cosolvent or surfactant or cyclodextrin
  solubility: 66.2 mg/mL
[2]; PEG300:ETH (70:30), pH 8.99, organic solvent or mixture
  solubility: 48.3 mg/mL
[2]; PEG 300:water (50:50), pH 4.5, aqueous with cosolvent or surfactant or cyclodextrin
  solubility: 30.6 mg/mL
[2]; PEG400:Benzyl alcohol (50:50), pH 8.19, organic solvent or mixture
  solubility: 51.6 mg/mL
[2]; PEG400:Ethanol 70:30, organic solvent or mixture
  solubility: 55.5 mg/mL
[2]; Propylene Glycol, organic solvent or mixture
  solubility: 44 mg/mL
[2]; Propylene glycol:water (50:50), pH 8.53, aqueous with cosolvent or surfactant or cyclodextrin
  solubility: 41.6 mg/mL
[2]; aqueous with cosolvent or surfactant or cyclodextrin, thermodynamic from solid, 10% cyclodextran
  solubility at 24 h: 46 mg/mL
[2]; aqueous with cosolvent or surfactant or cyclodextrin, thermodynamic from solid, 20% cyclodextran
  solubility at 24 h: 62 mg/mL
[2]; pH 8.21, organic solvent or mixture, PEG300 (IP10 g/kg)
  solubility: 52 mg/mL
[2]; pH 8.32, aqueous with cosolvent or surfactant or cyclodextrin, thermodynamic from solid, 5% cyclodextran
  solubility at 24 h: 39 mg/mL
[2]; pH 8.34, organic solvent or mixture, 100% PEG 400 (12 g/kg)
  solubility: 26 mg/mL
[2]; pH 8.35, aqueous with cosolvent or surfactant or cyclodextrin, thermodynamic from solid, 20% cyclodextran
  solubility at 48 h: 58 mg/mL
[2]; pH 8.41, aqueous with cosolvent or surfactant or cyclodextrin, thermodynamic from solid, 10% cyclodextran
  solubility at 48 h: 41 mg/mL
[2]; pH 8.52, aqueous with cosolvent or surfactant or cyclodextrin, thermodynamic from solid, 5% cyclodextran
  solubility at 48 h: 32 mg/mL
[2]; water, pH 8.4, water
  solubility: 11.8 mg/mL
[3]; aqueous buffer, pH 4.0
  solubility thermodynamic: 0.000154 mg/mL
[3]; aqueous buffer, pH 5.0
  solubility thermodynamic: 0.0379 mg/mL
[3]; aqueous buffer, pH 6.0
  solubility thermodynamic: 0.715 mg/mL
[3]; aqueous buffer, pH 8.0
  solubility thermodynamic: 16.8 mg/mL
[3]; aqueous buffer, pH 9.0
  solubility thermodynamic: 23.3 mg/mL
[3]; pH 7.4, aqueous buffer
  solubility thermodynamic: 11.1 mg/mL
[3]; calculated from pH-solubility studies
  pKa: 2.85 ± 0.6
[4]; 75° C., Sodium Salt
  pH-stability profile: better stability at neutral and biological pH but degradation is rapid under acidic condition
[4]; biological pH
  stability in aqueous environment: quite stable in an aqueous environment at biological pH
[4]; pH-stability study, Sodium Salt
  degradation rate order: pseudo-first-order rate
[5]
  octanol:water partition coefficient: 1.28-2.87
[6]
  solubility: 8 to 10 mg/mL
[7]
  accelerated solid-state stability of bulk drug substance: no evidence of degradation
[8]; in vivo, administered as a suspension
  half-life: 30 to 40 h
[8]; intramuscular in contrast to intravenous
  half life: increases significantly
[8]; subcutaneous administration, compared with intramuscular
  half life: increases even further
